ChEMBL document CHEMBL3881521, “Alpha-9 integrin antagonists and anti-inflammatory compositions therof” (2003)
The source made the active and inactive calls. The rule behind the calls is not given here. *1 amine or outer side, *2 acyl side, *3 side chain or, on linkers, in order; H or OH if unused. Where a SMILES comes first, the peptide text is derived from it. Side-chain parts run from the residue outwards. [ ]: non-standard residue; d: D form. The star is where a group is joined. Tos = Cc1ccc(S(=O)(=O)*)cc1; NMeA = CN[C@@H](C)C(=O)O; CO = O=C([*:1])[*:2]; Sar = CNCC(=O)O

Experiments:
Assay type in all cases: cell-based
[1] = biological target: ITGB1-ITGA9 complex (Homo sapiens) (UniProt P05556+Q13797); assay: Antagonist activity against integrin alpha9beta1 (unknown origin) expressed in SW480 cells assessed as inhibition of integrin alpha9-dependent cell adhesion to tenascin by binding saturation assay
[2] = biological target: Integrin alpha-4/beta-1 (Homo sapiens) (UniProt P05556+P13612); assay: Inhibition of C-terminal human lgG1 heavy chain constant region tagged recombinant soluble VCAM-1 binding to integrin alpha4beta1 in human Jurkat cells incubated for 30 mins by FACS based 15/7 antibody assay
SW480 [3] = assay: Selectivity for integrin alpha9beta1 (unknown origin) expressed in SW480 cells over integrin alpha4beta7 (unknown origin); conditions: Homo sapiens
SW480 [4] = assay: Selectivity for integrin alpha9beta1 (unknown origin) expressed in SW480 cells over integrin alpha5beta1 (unknown origin); conditions: Homo sapiens

SMILES | inhibition [1] | inhibition [2] | Selectivity ratio (SW480 [3]) | Selectivity ratio (SW480 [4])
Cc1ccc(S(=O)(=O)N2CS(=O)(=O)C(C)(C)[C@@H]2C(=O)N[C@@H](Cc2ccc(OCCCN(C)C)cc2)C(=O)O)cc1 | Active | Active | 100 | 100
Cc1ccc(S(=O)(=O)N2CCC[C@H]2C(=O)N[C@@H](Cc2ccc(OC(=O)N(C)C)cc2)C(=O)O)cc1 (Tos-Pro-Tyr([CO-NMe2])-OH) | Active | Active | 100 | 100
Cc1ccc(S(=O)(=O)N2CS(=O)(=O)C(C)(C)[C@@H]2C(=O)N[C@@H](Cc2ccc(OC(=O)N(C)C)cc2)C(=O)O)cc1 | Active | Active | 100 | 100
Cc1ccc(S(=O)(=O)N(C)[C@@H](C)C(=O)N[C@@H](Cc2ccc(OC(=O)N(C)C)cc2)C(=O)O)cc1 (Tos-[NMeA]-Tyr([CO-NMe2])-OH) | Active | Active | 100 | 100
Cc1ccc(S(=O)(=O)N2CCS(=O)(=O)C[C@@H]2C(=O)N[C@@H](Cc2ccc(OC(=O)N(C)C)cc2)C(=O)O)cc1 | Active | Active | 100 | 100
Cc1ccc(S(=O)(=O)N(C)CC(=O)N[C@@H](Cc2ccc(OC(=O)N(C)C)cc2)C(=O)O)cc1 (Tos-[Sar]-Tyr([CO-NMe2])-OH) | Active | Active | 100 | 100
CN(C)C(=O)Oc1ccc(C[C@H](NC(=O)[C@@H]2CCCN2S(=O)(=O)c2cnn(C)c2)C(=O)O)cc1 | Active | Active | 100 | 100
Cc1ccc(S(=O)(=O)N2CCC[C@H]2C(=O)N[C@@H](Cc2ccc(OC(=O)N3CCNCC3)cc2)C(=O)O)cc1 | Active | Active | 100 | 100
Cc1ccc(S(=O)(=O)N2CCC[C@H]2C(=O)N[C@@H](Cc2ccc(OC(=O)N3CCN(C)CC3)cc2)C(=O)O)cc1 | Active | Active | 100 | 100
